{"source": "patent US9945853B2", "about": "“Extracellular mitochondrial components for detecting inflammatory reactions and conditions” (UNIVERSITE LAVAL, priority 2013, dated 2018)", "key": {"[1]": {"system": "thrombin-activated platelets", "assay": "Extracellular mitochondria release from thrombin-activated platelets with cytoskeleton inhibitors (hs-FCM)", "format": "cell-based, human", "conditions": "addition of actin or tubulin polymerization inhibitors, n=4", "description": "(§1) A forward scatter (FSC) coupled to a photomultiplier tube (PMT) “small particles option” (FSC-PMT) (rather than the usual diode) with a 488-nm solid state, 100-mW output blue laser (rather than the conventional 20 mW), a 633-nm HeNe, 20-mW output red laser, and a 405-nm solid state diode, 50-mW output violet laser were mounted on the BD FACS Canto II Special Order Research Product used for all our studies (BD Biosciences). The chosen parameters were optimal to detect particles from 100 to 3 500 nm simultaneously on the FSC-PMT.\n(§2) Platelets were labeled with MitoTracker Deep Red™ and PKH67 Green Fluorescent Cell Linker as described above. Platelets were washed and then were left nonactivated or activated using heat-aggregated immunoglobulin (Ig)G (HA-IgG), 1 mg/mL; thrombin, 0.5 U/mL; collagen, 5 μg/mL; for 4 hours at room temperature. Platelets ([…]) were then diluted into […] phosphate-buffered saline (PBS) and analyzed by flow cytometry. For extracellular mitochondria release experiments, platelets were treated with cytochalasin B ([…]; Sigma-Aldrich), cytochalasin D ([…]; Sigma-Aldrich), cytochalasin E ([…]; Cayman Chemical), latrunculin A ([…]; Cayman Chemical), or nocodazole ([…]; Sigma-Aldrich). To process the data quantitatively, 100 000 polystyrene microspheres ([…] diameter; Polysciences) were added to each tube, and 1000 microspheres were acquired."}, "human neutrophils [2]": {"system": "human neutrophils", "assay": "Stimulation of neutrophils for leukotriene generation (5-LO products, HPLC)", "format": "cell-based", "conditions": "human neutrophils with extracellular mitochondria and sPLA2-IIA; pyrrophenone 100 nM", "protocol": "Human neutrophils were primed and stimulated for leukotriene biosynthesis as previously described (Cloutier et al. 2013, Flamand et al. 2006). To evaluate sPLA2-IIA mediated release of arachidonic acid, cPLA2α inhibitor pyrrophenone (100 nM) was added 5 min before stimulation. Stimulation was initiated by the addition of 5 μl of pre-treated mitochondria, or control, to prime neutrophils. The reaction was stopped by the addition of 500 μl of cold MeOH:CH3CN (1:1) containing 12.5 ng of prostaglandin B2 as internal standard. Samples were then processed and analyzed by reversed-phase high performance liquid chromatography using on-line extraction as previously described (Borgeat et al. 1990)."}, "human neutrophils [3]": {"system": "human neutrophils", "assay": "NET quantification", "format": "cell-based", "protocol": "Activated human neutrophils (5×10^6 cells/ml) were incubated in the presence of labeled mitochondria (5×10^5 mitochondria/ml, MitoTracker® Deep Red, 100 nm) and sPLA2-IIA (0.1 μg/ml) or diluent (PBS) for 2 h at 37° C. Cells were then fixed with 2% PFA and DNA staining was performed with Hoestch 33342 (1 μg/ml, Invitrogen). Cells were cytospinned on a slide at 500 RPM for 3 min. NET formation (%) was determined by the following equation: (NETs/PMN counted)*100. Preliminary experiments confirmed that mtDNA is readily distinguished from neutrophils NETs."}, "platelets": {"system": "platelets", "assay": "Platelet stimulation and release of freeMitos, mitoMPs and MPs (hs-FCM)", "format": "cell-based, human", "conditions": "platelets stimulated 4 hours at room temperature, vs supernatant from resting platelets, n=4", "description": "as §1, §2"}, "mitochondria [4]": {"system": "mitochondria", "assay": "Mitochondrial DNA release after incubation with sPLA2-IIA (Sytox Green)", "format": "biochemical, mouse", "conditions": "0.2 mg/mL, 30 minutes at 37° C., n=6", "protocol": "Mitochondria were seeded at 5×10^8 mitochondria/mL (Tyrode Buffer, pH 7.4, +5 mM CaCl2) in a flat bottom well plate (Costar, Corning). Human recombinant sPLA2-IIA (5 μg/ml) or diluent (PBS) was added and samples were then incubated for 30 min at 37° C. Nucleic acid stain Sytox® Green (2.5 μM, Invitrogen) was added to the mix and incubated for 10 min at room temperature. Fluorescence was obtained with a Tecan apparatus. To calculate the percentage of mitochondrial DNA released in the milieu, Triton X-100 (0.1% PBS) lysis of an equivalent amount of mitochondria (5×10^8 mitochondria/ml) was performed, to determine the total amount of mitochondrial DNA present per well."}, "C57BL/6N mice": {"system": "C57BL/6N mice", "assay": "Air pouch model, cytokine production", "format": "in vivo, mouse", "conditions": "injected into the air pouch of C57BL/6N mice, 4 hours; n=7", "protocol": "Briefly, sterile air was subcutaneous injected on days 0 and 3. Tumor necrosis factor-α (50 ng) was injected into the pouch on day 6. On day 7, mitochondrial membrane hydrolysis products ([…] of 5×10^8 mitochondria treated with sPLA2-IIA), diluent (PBS), sPLA2-IIA, or mitochondria alone were injected in the air pouch. After 4 hours, the air pouch was washed with 1.2 mL PBS. Cytokines were quantified using the BD Cytometric Bead Array System (CBA) (BD Biosciences) by flow cytometry on a BD FACS Canto II and analyzed using FCAP Array Software v3.0."}, "[5]": {"system": "freshly isolated human neutrophil", "assay": "Scanning electron microscopy of human neutrophils with mitochondria and sPLA2-IIA", "format": "cell-based", "conditions": "mitochondria with human neutrophils, 30-minute incubation with sPLA2-IIA; n=3", "protocol": "(§3) Samples were fixed with 2.5% glutaraldehyde for at least 24 h then processed for standard dehydration. Briefly, samples were first washed (3×10 min) with sodium cacodylate buffer (0.1 M, pH 7.3) then fixed with osmium tetroxide (1% in sodium cacodylate buffer) for 90 min. Samples were washed again (3×10 min) in sodium cacodylate buffer and subsequently processed for alcohol dehydration steps (50, 70, 95 and 100% EtOH, 10 min each steps). Samples were then dipped in 100% EtOH for 40 and 10 min, and air-dried overnight. Samples were then coated with palladium and observed with a JEOL 6360LV scanning electron microscope (Tokyo, Japan)."}, "mitochondria [6]": {"system": "mitochondria", "assay": "Scanning electron microscopy of mitochondria incubated with sPLA2-IIA", "design": "species or system mouse", "conditions": "scanning electron micrographs", "protocol": "as §3"}, "mitochondrial membranes": {"system": "mitochondrial membranes", "assay": "Mass spectrometry of lysophospholipids and fatty acids released from mitochondrial membranes by sPLA2-IIA", "format": "biochemical, mouse", "conditions": "0.1 and 1 μg/ml sPLA2-IIA, 37° C., 0.5 and 6 h", "protocol": "Mitochondria were incubated in the presence of 0.1 μg/ml and 1 μg/ml of human recombinant sPLA2-IIA at 37° C. for 0.5 and 6 h. Mitochondria were also incubated in the absence of sPLA2-IIA to determine the content of basal free fatty acid. Following incubation, the reaction was stopped with the addition of 20 mM of EGTA. Lysophospholipid analysis by mass spectrometry was carried out as described (Bollinger et al. 2010). Samples of sPLA2-IIA-treated mitochondria (200 μl) was mixed with 800 μl of chloroform/methanol (2/1) followed by the addition of 15 μl of internal standard mixture (Bollinger et al. 2010 B). Samples were extracted as described and analyzed by combined liquid chromatography/tandem mass spectrometry (Bollinger et al. 2010). Fatty acids were analyzed by conversion to their AMPP amide derivatives and then analyzed by combined liquid chromatography/tandem mass spectrometry."}, "mitochondria [7]": {"system": "mitochondria", "assay": "sPLA2-IIA binding to mitochondria (flow cytometry, anti-TOM22 co-elution and immunoblot)", "design": "species or system mouse", "conditions": "30 min on ice, 5 mM CaCl2", "protocol": "Mitochondria (10^6) from mouse liver were labeled with 100 nM of MitoTracker® Deep Red and incubated with 10 ng of sPLA2-IIA Alexa Fluor 488 (final volume 10 μl) in HBSS with 5 mM of CaCl2 for 30 min on ice. Samples were diluted and the presence of sPLA2-IIA Alexa Fluor 488 on fluorescent mitochondria was analyzed by flow cytometry.\nInteraction between mitochondria and sPLA2-IIA was also assessed by immunolabeling and co-elution. Unstained mouse liver mitochondria (10^7) in HBSS with 5 mM CaCl2 were incubated with 250 ng of sPLA2-IIA (final volume 100 μl) for 30 min on ice. Anti-TOM22 microbeads labeling was then performed as described above and processed on a magnet for mitochondria isolation. Mitochondria were then pelleted and lysed in 1× lysis buffer. Samples were electrophoresed, transferred onto membranes and incubated in 0.2% milk/TBS-Tween solution containing rabbit anti-sPLA2-IIA antibody (1/1000, Cayman Chemical) for 48 h at 4° C. The membrane was washed, treated with Peroxidase-AffiniPure anti-rabbit-IgG (Jackson ImmunoResearch) and reactive proteins were visualized by chemiluminescence (Perkin Elmer)."}}, "data": [{"molecule": "C[C@H]1C/C=C/[C@H]2[C@@H]3O[C@]3(C)[C@@H](C)[C@H]3[C@H](Cc4ccccc4)NC(=O)[C@]32OC(=O)O/C=C/[C@@](C)(O)C1=O", "note": "[cytochalasin E]", "values": [{"measurement": "Mitochondrial release (freeMito, mitoMPs, MPs) from thrombin-activated platelets", "setting": "[1]", "value": "significantly reduced"}]}, {"molecule": "O=C1NC(=O)/C(=C/c2ccc(C(=O)NC[C@@H]3C[C@@H](SC(c4ccccc4)(c4ccccc4)c4ccccc4)CN3C(=O)c3ccccc3C(=O)c3ccc(F)cc3F)cc2)S1", "note": "[pyrrophenone]", "values": [{"measurement": "LTB4 production (5-LO products) by neutrophils", "setting": "human neutrophils [2]", "value": "takes place even in presence"}]}, {"molecule": "C/C1=C/C(=O)O[C@@H]2C[C@@H](CC[C@H](C)/C=C\\C=C\\CC1)O[C@@](O)([C@@H]1CSC(=O)N1)C2", "note": "[latrunculin A]", "values": [{"measurement": "Mitochondrial release (freeMito, mitoMPs, MPs) from thrombin-activated platelets", "setting": "[1]", "value": "significantly reduced"}]}, {"molecule": "C=C1[C@@H](C)[C@H]2[C@H](Cc3ccccc3)NC(=O)[C@]23OC(=O)/C=C/[C@H](O)CCC[C@@H](C)C/C=C/[C@H]3[C@@H]1O", "note": "[cytochalasin B]", "values": [{"measurement": "Mitochondrial release (freeMito, mitoMPs, MPs) from thrombin-activated platelets", "setting": "[1]", "value": "significantly reduced"}]}, {"molecule": "C=C1[C@@H](C)[C@H]2[C@H](Cc3ccccc3)NC(=O)[C@]23[C@H](OC(C)=O)/C=C/[C@@](C)(O)C(=O)[C@@H](C)C/C=C/[C@H]3[C@@H]1O", "note": "[cytochalasin D]", "values": [{"measurement": "Mitochondrial release (freeMito, mitoMPs, MPs) from thrombin-activated platelets", "setting": "[1]", "value": "significantly reduced"}]}, {"molecule": "CCCCC/C=C\\C/C=C\\C/C=C\\C/C=C\\CCCC(=O)O", "note": "[arachidonic acid]", "values": [{"measurement": "inducing NETosis (hydrolytic products derived from sPLA2-IIA activity)", "setting": "human neutrophils [3]; human neutrophils", "value": "highly potent"}]}, {"molecule": "thrombin", "values": [{"measurement": "release of extracellular freeMitos, mitoMPs and MPs", "setting": "platelets", "value": "trigger the release"}]}, {"molecule": "collagen", "values": [{"measurement": "release of extracellular freeMitos, mitoMPs and MPs", "setting": "platelets", "value": "trigger the release"}]}, {"molecule": "CCCCCCCCCCCCCC(=O)O[C@@H]1[C@@H](C)[C@@]2(O)[C@@H](C=C(CO)C[C@]3(O)C(=O)C(C)=C[C@@H]23)[C@@H]2C(C)(C)[C@]12OC(C)=O", "note": "[PMA, phorbol 12-myristate 13-acetate]", "values": [{"measurement": "release of extracellular freeMitos, mitoMPs and MPs", "setting": "platelets", "value": "trigger the release"}]}, {"molecule": "sPLA2-IIA: human recombinant secreted phospholipase A2 group IIA (protein, UniProt P14555 21-144, looked up) Phospholipase A2, membrane …: NLVNFHRMIKLTTGKEAALSYGFYGCHCGVGGRGSPKDATDRCCVTHDCCYKRLEKRGCGTKFLSYKFSNSGSRITCAKQDSCRSQLCECDKAAATCFARNKTTYNKKYQYYSNKHCRGSTPRC", "values": [{"measurement": "mtDNA extrusion", "setting": "mitochondria [4]", "value": "amplified"}, {"measurement": "production of IL-1b and IL-6", "setting": "C57BL/6N mice", "value": "modest cytokine production"}, {"measurement": "neutrophil structural change", "setting": "[5]", "value": "29.2±2.11", "unit": "%"}, {"measurement": "mitochondrial structural integrity", "setting": "mitochondria [6]", "value": "severely affects mitochondrial structural integrity"}, {"measurement": "release of lysophospholipids and free fatty acids from mitochondria", "setting": "mitochondrial membranes", "value": "release of various lysophospholipids and free fatty acids"}, {"measurement": "LTB4 production (5-LO products) by neutrophils", "setting": "human neutrophils [2]", "value": "copious amounts"}, {"measurement": "binding of sPLA2-IIA to mitochondria", "setting": "mitochondria [7]", "value": "binds mitochondria"}, {"measurement": "NET formation by mitochondria", "setting": "human neutrophils [3]; human neutrophils with mitochondria, sPLA2-IIA 0.1 μg/ml, 2 h at 37° C.", "value": "significantly enhances"}]}]}
